# Where two headings read alike, the source gives them in different places.
# Test system: 280 human cancer cell lines
# Assay: OncoPanel cell proliferation assay (10-day)
# Format: cell-based
# Conditions: Homo sapiens; for EC50: read-out: Cell Count EC50; for GI50: read-out: Cell Count GI50; for IC50: read-out: Cell Count IC50
# [1] = NCI-H292, NCI-H292, Lung - NSCLC
# [2] = NCI-H295R, Endocrine - Adrenal gland
# [3] = NCI-H441, NCIH441, Lung - NSCLC
# [4] = NCI-H460, NCI-H460, Lung - NSCLC
# [5] = NCI-H520, NCI-H520, Lung - NSCLC
# [6] = NCI-H596, NCI-H596, Lung - NSCLC
# [7] = NCI-H661, NCI-H661, Lung - NSCLC
# [8] = NTERA-2-cl-D1, NTERA-2 cl.D1, Testis
# [9] = OVCAR-3, OVCAR3, Female GU - Ovary
# [10] = RPMI-7951, RPMI-7951, Skin (Melanoma)
# [11] = SAOS-2, SaOS2, Soft Tissue - Osteosarcoma
smiles,measurement,setting,value
"CC(C)=CCC[C@H](C)[C@@H]1CC[C@@H](C)c2c1cc(C)c(O)c2O [Compound 4, 7,8-dihydroxyserrulat-14-ene]",EC50,[1],9.21 µM
same,GI50,[1],9.19 µM
same,IC50,[1],9.21 µM
same,EC50,[2],25.6 µM
same,GI50,[2],21.6 µM
same,IC50,[2],25.6 µM
same,EC50,[3],4.76 µM
same,GI50,[3],> 30 µM
same,IC50,[3],> 30 µM
same,EC50,"NCI-H446, NCIH446, Lung - SCLC",7.81 µM
same,GI50,"NCI-H446, NCIH446, Lung - SCLC",7.62 µM
same,IC50,"NCI-H446, NCIH446, Lung - SCLC",7.81 µM
same,EC50,[4],12.2 µM
same,GI50,[4],13 µM
same,IC50,[4],13 µM
same,EC50,"NCI-H508, NCI-H508, Colon",> 30 µM
same,GI50,"NCI-H508, NCI-H508, Colon",> 30 µM
same,IC50,"NCI-H508, NCI-H508, Colon",> 30 µM
same,EC50,[5],20.8 µM
same,GI50,[5],20.6 µM
same,IC50,[5],20.8 µM
same,EC50,[6],28.2 µM
same,GI50,[6],> 30 µM
same,IC50,[6],> 30 µM
same,EC50,[7],5.94 µM
same,GI50,[7],5.86 µM
same,IC50,[7],5.94 µM
same,EC50,"NCI-H747, NCI-H747, Colon",28.1 µM
same,GI50,"NCI-H747, NCI-H747, Colon",28.1 µM
same,IC50,"NCI-H747, NCI-H747, Colon",28.2 µM
same,EC50,[8],7.41 µM
same,GI50,[8],7.39 µM
same,IC50,[8],7.41 µM
same,EC50,"OCUG-1, OCUG-1, Liver",15.6 µM
same,GI50,"OCUG-1, OCUG-1, Liver",15.5 µM
same,IC50,"OCUG-1, OCUG-1, Liver",15.6 µM
same,EC50,"OE19, OE19, Head and Neck",20.7 µM
same,GI50,"OE19, OE19, Head and Neck",20.5 µM
same,IC50,"OE19, OE19, Head and Neck",20.7 µM
same,EC50,"OE21, OE21, Head and Neck",12.7 µM
same,GI50,"OE21, OE21, Head and Neck",12.7 µM
same,IC50,"OE21, OE21, Head and Neck",12.7 µM
same,EC50,[9],15.6 µM
same,GI50,[9],14.9 µM
same,IC50,[9],15.6 µM
same,EC50,"PA-1, Female GU - Ovary",7.89 µM
same,GI50,"PA-1, Female GU - Ovary",7.89 µM
same,IC50,"PA-1, Female GU - Ovary",7.9 µM
same,EC50,"PANC-1, PANC-1, Pancreas",11.7 µM
same,GI50,"PANC-1, PANC-1, Pancreas",11.6 µM
same,IC50,"PANC-1, PANC-1, Pancreas",11.7 µM
same,EC50,"PC-3, Prostate",7.71 µM
same,GI50,"PC-3, Prostate",7.64 µM
same,IC50,"PC-3, Prostate",7.71 µM
same,EC50,"PFSK-1, PFSK-1, CNS - Glioma",3.82 µM
same,GI50,"PFSK-1, PFSK-1, CNS - Glioma",3.8 µM
same,IC50,"PFSK-1, PFSK-1, CNS - Glioma",3.82 µM
same,EC50,"PSN1, PSN-1, Pancreas",5.04 µM
same,GI50,"PSN1, PSN-1, Pancreas",5.04 µM
same,IC50,"PSN1, PSN-1, Pancreas",5.04 µM
same,EC50,"RD, Soft Tissue - Sarcoma",5.19 µM
same,GI50,"RD, Soft Tissue - Sarcoma",5.17 µM
same,IC50,"RD, Soft Tissue - Sarcoma",5.19 µM
same,EC50,"RKO, Colon",12 µM
same,GI50,"RKO, Colon",12 µM
same,IC50,"RKO, Colon",12 µM
same,EC50,"RKOE6, RKOE6, Colon",6.79 µM
same,GI50,"RKOE6, RKOE6, Colon",6.76 µM
same,IC50,"RKOE6, RKOE6, Colon",6.79 µM
same,EC50,"RPMI-6666, RPMI 6666, Lymphoma",23.1 µM
same,GI50,"RPMI-6666, RPMI 6666, Lymphoma",23 µM
same,IC50,"RPMI-6666, RPMI 6666, Lymphoma",23.1 µM
same,EC50,[10],9.98 µM
same,GI50,[10],9.96 µM
same,IC50,[10],9.98 µM
same,EC50,"RPMI-8226, RPMI 8226, Myeloma",3.03 µM
same,GI50,"RPMI-8226, RPMI 8226, Myeloma",3.03 µM
same,IC50,"RPMI-8226, RPMI 8226, Myeloma",3.04 µM
same,EC50,"RS4-11, RS4, 11, Leukemia",4.15 µM
same,GI50,"RS4-11, RS4, 11, Leukemia",4.16 µM
same,IC50,"RS4-11, RS4, 11, Leukemia",4.23 µM
same,EC50,"Raji, Lymphoma",3.92 µM
same,GI50,"Raji, Lymphoma",3.92 µM
same,IC50,"Raji, Lymphoma",3.92 µM
same,EC50,"Ramos, Ramos (RA 1), Lymphoma",4.17 µM
same,GI50,"Ramos, Ramos (RA 1), Lymphoma",4.17 µM
same,IC50,"Ramos, Ramos (RA 1), Lymphoma",4.17 µM
same,EC50,[11],10.6 µM
same,GI50,[11],10.7 µM
same,IC50,[11],10.7 µM
same,EC50,"SCC-4, SCC-4, Head and Neck",15.8 µM
same,GI50,"SCC-4, SCC-4, Head and Neck",15.5 µM
same,IC50,"SCC-4, SCC-4, Head and Neck",15.8 µM
same,EC50,"SCC-9, SCC-9, Head and Neck",16.5 µM
same,GI50,"SCC-9, SCC-9, Head and Neck",16.4 µM
same,IC50,"SCC-9, SCC-9, Head and Neck",16.5 µM
same,EC50,"SCC-25, SCC-25, Head and Neck",25 µM
same,GI50,"SCC-25, SCC-25, Head and Neck",25 µM
same,IC50,"SCC-25, SCC-25, Head and Neck",25 µM
same,EC50,"SCaBER, Bladder",16.9 µM
same,GI50,"SCaBER, Bladder",16.8 µM

# Reference: patent US11331299B2, “Medicinal use of serrulatane diterpenes” (The University of Sydney, priority 2016, dated 2022)
